Results on 7 compounds are retold here after PMC9396645 (Frontiers in Chemistry, 2022).

By Ki is commonly meant a dissociation constant, usually derived from enzyme kinetics or from competition with a known ligand. High values mean weaker binding, low ones tighter binding.

One data set addresses T1, PSMA (Homo sapiens, UniProt Q04609).
T1 construct: host or cells: C4-2 cells (subline of LNCaP)
Put plainly: Competitive cell binding assay on C4-2 cells vs ^68Ga-PSMA-10. The note with it: non-labeled compounds, radioligand ^68Ga-PSMA-10 0.75 nM, 37°C 45 min, mean ± SD (n = 3). As for the experimental part: The competition binding assay was performed using the cell line C4-2 (ATCC® CRL-3314™; American Type Culture Collection). This is a subline of the PSMA-positive cell line LNCaP. The cells were cultivated in RPMI 1640 medium (PAN-Biotech), supplemented with 10% fetal bovine serum and 2 mM L-glutamine (PAN-Biotech) at 37°C and 5% CO2 in a humidified atmosphere.
A 96-well MultiScreenHTS-DV filter plate (Merck Millipore) was incubated at room temperature with 100 µL of a 1% bovine serum albumin (BSA) solution in PBS (phosphate-buffered saline) per well for 30 min. After removal of PBS/BSA solution, 1 × 10^5 C4-2 cells in 50 µL of Opti-MEM medium (Gibco, Life Technologies) were seeded into each well. […] All non-labeled compounds were dissolved in Opti-MEM and added as competing ligands at several concentrations: 0, 0.5, 1, 2.5, 5, 10, 25, 50, 100, 500, 1,000, and 5,000 nM. After incubation at 37°C for 45 min, the cells were washed twice with PBS at 4°C. The radioactivity in the supernatant and that accumulated by the cells was determined with a γ-counter (Packard Cobra Auto-gamma). Using Graph Pad Prism 5.01 software, a nonlinear regression algorithm was calculated to obtain the 50% inhibitory concentration (IC50). These experiments were performed in quadruplicate.

In another data set the test system is C4-2 cells. The data set can be described thus: Internalization efficiency / specific cell uptake in C4-2 cells. The note with it: for Specific cell surface / Specific lysate (internalization): ^68Ga-labeled compounds 30 nM, 45 min, 37°C, specificity by 2-PMPA 500 μM, mean ± SD (n = 3). In kind it is cell-based, human. As for the experimental part:
The specific internalization ratio was determinated in 24-well plates. The plates were previously coated with 0.1% poly-L-lysine in PBS for 20 min and washed with PBS once. C4-2 cells (10^5 cells per analysis) were added to each well and equilibrated overnight. The cells were incubated for 45 min with 250 µL of a 30 nM solution of the ^68Ga-labeled compounds either in a water bath at 37°C or on ice. The PSMA-receptor-blocking agent 2-(phosphonomethyl)pentanedioic acid (2-PMPA; 500 μM; Axxora) was used to verify the specificity of the cellular uptake of the novel compounds. The cells were washed thrice (using 1 ml of ice-cold PBS), followed by an incubation with 0.5 ml of a glycine solution (50 mM in HCl at a pH of 2.8) for 5 min, washed once with 1 ml of ice-cold PBS, and finally lysed with 0.5 ml of 0.3 M NaOH. The lysate was collected, and the radioactivity was measured in a gamma-counter. Triplicate measurements were performed for all experiments.

The nature of data set [1]: Determination of plasma half-life in athymic nude mice. In kind it is in vivo, mouse. The note with it: athymic nude mice (n = 3), i.v. 4–6 MBq, biexponential fit, weighted overall half-life. The procedure: The radioligands ^68Ga-CA027 and ^68Ga-CA028 (4–6 MBq) were injected into athymic nude mice (n = 3) via the lateral tail vein. Blood (25–50 μL) was collected 2, 5, 15, 30, 45, 60, 90, and 120 min post injection via either the tail or saphenous vein, and the activity of the blood samples was determined in a γ-counter. Both procedures furnished consistent and reproducible results. The percentage of the injected dose per gram of tissue (%ID/g) was calculated, and the resulting values were plotted as a function of time. A biexponential decay curve was used as a fit function, accounting for a short blood half-life (a-phase) during the initial phase directly after injection and a longer blood half-life during the terminal phase (b-phase). The data analysis program Prism 7™ was used to determine both half-lives, t1/2-a and t1/2-b, as well as their relative contribution (in %) to the overall half-life (t1/2). Subsequently, both half-lives were weighed according to their relative contribution to the overall blood half-life t1/2. At the time of tracer injection (t = 0), it was assumed that %ID/g = 50. The injected dose at t = 0 equals 100%, divided by the total mass of blood (approximately 2 g in the case of 6‒8 weeks old mice) gives %ID/g t=0 = 50.

The nature of data set [2]: Serum stability (radio-HPLC and radio-ITLC). Particulars: ^177Lu-labeled, 37°C. In kind it is in vitro ADME. As for the experimental part: After radiolabeling of the compounds, serum stability was examined by HPLC and ITLC (instant thin-layer chromatography). 50 µL (20 MBq) of the ^177Lu-labeled ligands was added to 200 µL human serum (Sigma-Aldrich) and incubated at 37°C. At different time points (0, 2, 24, 48, and 72 h) 0.5 µL was applied onto iTLC-SG-glass microfiber chromatography paper strips (5 × 0.5 cm; Agilent Technologies) at a distance of 1 cm from the bottom. The strip was placed upright into a vial containing 120 µL of sodium citrate buffer (0.5 M, pH = 5.0). The buffer front was allowed to rise to the top. Subsequently, each strip was cut in eight equally sized pieces that were subsequently measured in a gamma-counter. For HPLC analysis, an equal volume of ACN was added to the samples; under these conditions, the serum proteins precipitated. The samples were centrifuged for 10 min at 12,000 × g. Following the separation of the pellet and the supernatant, their relative activity (%) was determined. An aliquot of the supernatant was analyzed by radio-HPLC (0–100% ACN in 5 min, Monolith column, Merck), with a flow rate of 2 mL/min.

For the next data set, the system named is C4-2 tumor-bearing mice. Put plainly: In vivo metabolite analysis by radio-HPLC of tissue extracts. Particulars: extracts from kidney, blood, liver and tumor of C4-2 tumor-bearing mice, 10 MBq, 0.2 nmol i.v. Also noted: species or system mouse. As for the experimental part: The metabolization of the radiolabeled tracers in vivo was studied by radio-HPLC analysis. Male nude C4-2 tumor-bearing mice (n = 3) were injected with ^177Lu-CA028 or ^177Lu-PSMA-617 (10 MBq, 0.2 nmol in approximately 100 µL of 0.9% saline) via the tail vein. Ten min post injection, blood, the liver, and the kidneys were dissected. The tissues were rinsed with ice-cold saline, blotted dry, treated with 2 mL of 0.1 M NH4OAc/EtOH (35:65), and homogenized with an Ultra-Turrax T8 (IKA Labortechnik). The samples were then centrifuged for 10 min at 12,000 × g and 4°C. For HPLC measurements, an aliquot of the supernatants was prepared by precipitation of the proteins with ACN as described above for serum stability testing. The samples were analyzed by radio-HPLC (0–100% ACN in 5 min, 2 mL/min, Monolith column, Merck). The fractions were collected every 10 s over the whole course of the chromatographic run. Subsequently, the activity of the samples was measured in a gamma-counter to reconstruct a chromatogram.

Each structure is given as a SMILES string.

T1 sequence (Q04609 whole entry): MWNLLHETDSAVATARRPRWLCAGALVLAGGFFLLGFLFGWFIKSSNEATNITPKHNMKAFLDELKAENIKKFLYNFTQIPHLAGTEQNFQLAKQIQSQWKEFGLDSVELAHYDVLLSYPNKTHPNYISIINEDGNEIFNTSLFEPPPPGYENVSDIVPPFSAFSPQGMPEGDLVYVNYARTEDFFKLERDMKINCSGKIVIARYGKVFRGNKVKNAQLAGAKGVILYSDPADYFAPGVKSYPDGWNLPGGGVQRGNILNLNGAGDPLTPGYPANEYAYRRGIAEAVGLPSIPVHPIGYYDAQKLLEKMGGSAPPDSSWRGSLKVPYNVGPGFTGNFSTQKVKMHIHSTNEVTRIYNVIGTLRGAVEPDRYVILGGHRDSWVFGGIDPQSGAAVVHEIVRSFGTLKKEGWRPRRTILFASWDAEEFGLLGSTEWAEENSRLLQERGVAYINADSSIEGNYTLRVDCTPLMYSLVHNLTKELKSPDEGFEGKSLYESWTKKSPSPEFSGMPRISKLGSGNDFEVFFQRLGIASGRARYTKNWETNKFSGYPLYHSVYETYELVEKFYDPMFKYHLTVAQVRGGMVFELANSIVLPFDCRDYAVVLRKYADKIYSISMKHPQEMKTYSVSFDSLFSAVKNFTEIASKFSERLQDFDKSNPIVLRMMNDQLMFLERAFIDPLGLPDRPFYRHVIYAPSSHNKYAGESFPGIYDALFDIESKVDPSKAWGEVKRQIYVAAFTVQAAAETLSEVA

Consider `O=C(O)CCC(NC(=O)NC(CCCCNC(=O)c1ccc(CN2CCN(CC(=O)O)CCN(CC(=O)O)CCN(CC(=O)O)CC2)cc1)C(=O)O)C(=O)O` (stereo not drawn) [CA027], for which the affinity on PSMA corresponds to a Ki of 33.8 ± 2.13 nM. In the data set on C4-2 cells, the Specific cell surface amounted to 2.18 ± 0.50 %IA/10^6cells and the “Specific lysate (internalization)” value worked out at 1.70 ± 0.24 %IA/10^6 cells.

For the compound `O=C(O)CCC(NC(=O)NC(CCCCNC(=O)C(Cc1ccc2ccccc2c1)NC(=O)C1CCC(CNC(=O)c2ccc(CN3CCN(CC(=O)O)CCN(CC(=O)O)CCN(CC(=O)O)CC3)cc2)CC1)C(=O)O)C(=O)O` (stereo not drawn) [CA028], the Ki on PSMA was found to be 15.2 ± 6.11 nM. Also, in the data set with C4-2 cells, the Specific cell surface was 94.12 ± 2.70 %IA/10^6cells and the “Specific lysate (internalization)” value came to 41.22 ± 2.72 %IA/10^6 cells.

In turn, `O=C(O)CCC(NC(=O)NC(CCCCNC(=O)C(Cc1ccc2ccccc2c1)NC(=O)C1CCC(CNC(=S)Nc2ccc(CNC(=O)CCC(C(=O)O)N3CCN(CC(=O)O)CCN(CC(=O)O)CCN(CC(=O)O)CC3)cc2)CC1)C(=O)O)C(=O)O` (stereo not drawn) [CA029] registered an inhibitory constant (Ki) on PSMA of 11 ± 4.87 nM. In addition, in the data set on C4-2 cells, the Specific cell surface was found to be 46.83 ± 3.07 %IA/10^6cells and the “Specific lysate (internalization)” value was 44.26 ± 3.96 %IA/10^6 cells.

Regarding `O=C(O)CCC(NC(=O)NC(CCCCNC(=O)C(Cc1ccc2ccccc2c1)NC(=O)C1CCC(CNC(=S)Nc2ccc(CC3CN(CC(=O)O)CCN(CC(=O)O)CCN(CC(=O)O)CCN3CC(=O)O)cc2)CC1)C(=O)O)C(=O)O` (stereo not drawn) [CA030], the inhibitory constant (Ki) on PSMA came to 4.79 ± 1.31 nM. In addition, in the data set with C4-2 cells (Table 2), the “specific internalization in C4-2 cells” value is on record as 53.78 % ID/10^6 cells. Moreover, in the data set on C4-2 cells, the Specific cell surface was 43.46 ± 1.50 %IA/10^6cells and the “Specific lysate (internalization)” value was 53.78 ± 5.45 %IA/10^6 cells.

As for `O=C([O-])CN1CCN(CC(=O)[O-])CCN(Cc2ccc(C(=O)NCCCCC(NC(=O)NC(CCC(=O)O)C(=O)O)C(=O)O)cc2)CCN(CC(=O)[O-])CC1.[68Ga+3]` (stereo not drawn) [^68Ga-CA027], in data set [1], the “plasma half-life t1/2” value was found to be 2.7 min.

For the compound `O=C([O-])CN1CCN(CC(=O)[O-])CCN(Cc2ccc(C(=O)NCC3CCC(C(=O)NC(Cc4ccc5ccccc5c4)C(=O)NCCCCC(NC(=O)NC(CCC(=O)O)C(=O)O)C(=O)O)CC3)cc2)CCN(CC(=O)[O-])CC1.[177Lu+3]` (stereo not drawn) [^177Lu-CA028], in data set [2] ('at this time point'), the “free activity in human serum” value came out at 40%. In addition, in the data set with C4-2 tumor-bearing mice, the “metabolization in vivo (radio-HPLC of extracts)” value is “activity elutes at the retention time of the intact tracer”.

`O=C([O-])CN1CCN(CC(=O)[O-])CCN(CC(=O)NCC2CCC(C(=O)N[C@@H](Cc3ccc4ccccc4c3)C(=O)NCCCC[C@H](NC(=O)N[C@@H](CCC(=O)O)C(=O)O)C(=O)O)CC2)CCN(CC(=O)[O-])CC1.[177Lu+3]` (stereo partly drawn) [^177Lu-PSMA-617, reference compound]: the “release of ^177Lu in human serum” value in data set [2] (radio-ITLC) is listed as “no release”. Also, in the data set on C4-2 tumor-bearing mice, the “metabolization in vivo (radio-HPLC of extracts)” value is recorded as “activity elutes at the retention time of the intact tracer”.
